The values below are quoted from earlier work in patent US20090197941A1, “Pharmaceutical Compositons for the Treatment of Chronic Obstructive Pulmonary Disease” (priority 2005, published 2009).

One series concerns U87 human glioma cells. The note with it: increasing concentrations of CBD, Boyden chamber, read-out: IC50 of tumour cell migration.
A further series has as its target CB2 receptors (Homo sapiens, UniProt P34972). The conditions noted are these: known in the art.
The next series deals with CB1 receptors (Homo sapiens, UniProt P21554). The conditions noted are these: known in the art.
CB1 receptors, sequence (P21554 whole entry): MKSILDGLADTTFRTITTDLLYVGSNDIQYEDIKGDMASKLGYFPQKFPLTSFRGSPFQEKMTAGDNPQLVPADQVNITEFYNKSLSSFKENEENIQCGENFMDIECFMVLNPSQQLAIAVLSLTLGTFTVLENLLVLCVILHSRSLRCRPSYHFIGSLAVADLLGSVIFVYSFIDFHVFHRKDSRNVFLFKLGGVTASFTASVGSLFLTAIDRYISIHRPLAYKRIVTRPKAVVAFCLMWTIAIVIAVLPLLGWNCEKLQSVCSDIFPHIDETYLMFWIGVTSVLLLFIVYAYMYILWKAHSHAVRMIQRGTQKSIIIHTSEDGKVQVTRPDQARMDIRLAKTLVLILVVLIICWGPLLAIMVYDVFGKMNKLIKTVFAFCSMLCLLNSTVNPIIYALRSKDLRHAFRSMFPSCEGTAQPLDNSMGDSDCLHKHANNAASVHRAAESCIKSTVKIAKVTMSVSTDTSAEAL

CB2 receptors, sequence (P34972 whole entry): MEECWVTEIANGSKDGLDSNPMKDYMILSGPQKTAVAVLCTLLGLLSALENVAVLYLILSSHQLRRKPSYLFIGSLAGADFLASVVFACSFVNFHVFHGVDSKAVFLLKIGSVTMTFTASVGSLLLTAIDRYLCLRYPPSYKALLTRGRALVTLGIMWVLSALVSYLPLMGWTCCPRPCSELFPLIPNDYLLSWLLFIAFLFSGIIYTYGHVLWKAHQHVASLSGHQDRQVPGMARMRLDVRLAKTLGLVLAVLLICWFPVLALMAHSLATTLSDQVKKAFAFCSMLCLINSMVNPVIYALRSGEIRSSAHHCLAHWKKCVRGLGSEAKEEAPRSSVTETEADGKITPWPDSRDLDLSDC

As to `C=C(C)[C@@H]1CCC(C)=C[C@H]1c1c(O)cc(CCCCC)cc1O` [CBD, cannabidiol], the IC50 in the series on U87 human glioma cells is 5.05 ± 1.1 µM. Besides, at CB2 receptors, the “action at CB2 receptors” value is on record as “not to act”. Moreover, the “action at CB1 receptors” value on CB1 receptors was “only very weakly”.
